Measurements: patent US20240216513A1, “FATTY ACID-BIFUNCTIONAL DEGRADER CONJUGATES AND THEIR METHODS OF USE” (Novartis AG, priority 2021, published 2024)
Like-named read-outs stand apart in the source and are kept apart here.

Key:
[1] = In vivo pharmacokinetic study in rats (i.v. or s.c.), FAC and payload in blood; set-up: species or system rat; details: for AUC: male, Sprague-Dawley, rat, whole blood, 1 umol/kg
Procedure: Pharmacokinetic studies were conducted in male C57/B16 mice; male Sprague-Dawley rats; male Beagle dogs and male Cynomolgus monkeys. 3 animals per group were used for each study performed. All studies were performed in accordance with local animal welfare regulations.
[…] Serial 30 µL blood samples were collected via venipuncture of the tail vein in mouse, and via the cannulated jugular vein in rats at defined timepoints to 216 hours (into EDTA coated tubes).
Each blood sample was precipitated with acetonitrile containing internal standard; samples were mixed and centrifuged (20 minutes 4000 RPM at 4° C.). Supernatant was transferred to a microwell plate and evaporated under nitrogen at 60° C. Residue was resuspended in acetonitrile/water (7:3 v/v); plate sealed and transferred to an ultrasonic bath for 3 minutes, prior to analysis. Quantification was performed by LC-MS/MS (SciexAP16500 Q-trap, Shimadzu Nexera X2) using a Phenomenex Polar RP analytical column (2.5 μm particle size; 50×2 mm). The mobile phase consisted of solvent A (0.1% formic acid in water) and solvent B (0.1% formic acid in acetonitrile). The fatty acid conjugate and API were detected using multiple reaction monitoring.
Data analysis and calculation of non-compartmental pharmacokinetic parameters was
performed using an in-house analysis. Following intravenous administration whole blood clearance was calculated by the dose administered divided by AUC0-inf. Volume of distribution at steady state was calculated as MRT*CL, where MRT is the mean residence time, calculated by AUMC0-inf/AUC0-inf. The half-life (t1/2) of the terminal elimination phase was calculated by 0.693/λ. For both intravenous and subcutaneous administration, the systemic exposures were determined by calculating the area under the blood concentration time curve (AUC) from time zero to the last observed quantifiable concentration (AUClast) by using the linear trapezoidal method and normalised to dose. Extrapolated AUC (AUC0-inf) is calculated by addition of AUClast and AUCtlast-inf; where AUCtlast-inf is calculated based on Clast/λ. The slope of the terminal elimination phase was estimated by linear regression of the terminal data points (minimum 3 points) from a natural log concentration versus time plot of the data. Bioavailability was calculated as the dose normalized ratio of […] AUCinf to intravenous AUCinf (100*[SC AUCinf/SC dose]/[IV AUCinf/IV dose]). Following subcutaneous administration Cmax is calculated as the average maximum observed peak concentration and Tmax is the time associated with the determined Cmax.
For PK experiments, non-tumor bearing mice or rats were treated once (10 mL/kg) with a compound either i.v. or s.c. Serial blood samplings from the tail vein (5-20 μl) were collected during the course of the experiment. For PK/PD experiments in tumor-bearing mice, compound was administered once (10 mL/kg) either i.v. or s.c. Animals were randomized into groups of n=3 and tissue samples were collected at several time points. At the times indicated, animals were anaesthetized by exposure to 2-3% v/v isoflurane in medical oxygen. They were sacrificed without recovering from anesthetic after blood sampling into commercially prepared EDTA coated tubes (Milian, cat #TOM-14C) in order to extract plasma. The tissues were excised, weighted and rapidly frozen in liquid nitrogen. Later, tumors were cryogenic dry pulverized with the CryoPrep™ system (model CP-02, Covaris). For efficacy experiments in ectopic tumor-bearing mice, animals were randomized into groups of n=6 for a mean tumor size of 100 mm^3 and compound was administered either i.v. q3w or s.c. q2w. When implanted in brain, animals were randomized into groups of n=4 for a mean bioluminescence of 1.0-2.0E+06 [p/s]/[ρW/cm^2] and compound was administered i.v. qw. Tumor response were reported with the measures of tumor volumes or bioluminescence from the treatment start. […]

TMD8 tumors = assay: Efficacy in ectopic (subcutaneous) TMD8 tumor-bearing SCID/BEIGE mice, tumor volume; format: in vivo, mouse; details: 20 mgL/kg (unconjugated V)
Procedure: All animal experiments were performed according to procedures covered by permit number BS-1974, BS-1975 and BS-2904 issued by the Kantonales Veterinäramt Basel-Stadt and strictly adhered to the Eidgenössisches Tierschutzgesetz and the Eidgenössische Tierschutzverordnung. Female Sprague Dawley rat were obtained from Charles Rivers (Germany), female Balb/c mice from Charles Rivers (Italy) and female SCID/BEIGE (C.B-Igh-1b/GbmsTac-Prkdcscid-Lystbg N7) mice from Taconic. All the animals were housed in a pathogen-controlled environment with access to food and water ad libitum and they were identified with transponders.
Subcutaneous TMD8 tumors were induced by injecting tumor cells expanded in vitro in the right flank of SCID/BEIGE mice. As soon as the injection was finished, antagonization (naloxone, flumazenil and atipamezole injected s.c.) was injected and mice are put on a warming pad for recovery and carefully checked during that time.
For PK experiments, non-tumor bearing mice or rats were treated once (10 mL/kg) with a compound either i.v. or s.c. Serial blood samplings from the tail vein (5-20 μl) were collected during the course of the experiment. For PK/PD experiments in tumor-bearing mice, compound was administered once (10 mL/kg) either i.v. or s.c. Animals were randomized into groups of n=3 and tissue samples were collected at several time points. At the times indicated, animals were anaesthetized by exposure to 2-3% v/v isoflurane in medical oxygen. They were sacrificed without recovering from anesthetic after blood sampling into commercially prepared EDTA coated tubes (Milian, cat #TOM-14C) in order to extract plasma. The tissues were excised, weighted and rapidly frozen in liquid nitrogen. Later, tumors were cryogenic dry pulverized with the CryoPrep™ system (model CP-02, Covaris). For efficacy experiments in ectopic tumor-bearing mice, animals were randomized into groups of n=6 for a mean tumor size of 100 mm^3 and compound was administered either i.v. q3w or s.c. q2w. When implanted in brain, animals were randomized into groups of n=4 for a mean bioluminescence of 1.0-2.0E+06 [p/s]/[ρW/cm^2] and compound was administered i.v. qw. Tumor response were reported with the measures of tumor volumes or bioluminescence from the treatment start. Concentrations of compound in blood and tissues were determined simultaneously by UPLC/MS-MS. BTK and IL-10 levels in tumor were determined by Meso Scale Discovery (MSD).

BTK C481S = biological target: T1, BTK C481S (Homo sapiens, UniProt Q06187, C481S); assay: PD screen in TMD8 BTK C481S mutant tumor-bearing mice, BTK levels and compound concentrations in blood and tumor; format: in vivo, mouse; details: 20 mgL/kg (unconjugated V)
T1 construct: endogenous in cells; host or cells: TMD8 BTK C481S mutant tumour xenografts in mice
T1 sequence (Q06187 whole entry C481S): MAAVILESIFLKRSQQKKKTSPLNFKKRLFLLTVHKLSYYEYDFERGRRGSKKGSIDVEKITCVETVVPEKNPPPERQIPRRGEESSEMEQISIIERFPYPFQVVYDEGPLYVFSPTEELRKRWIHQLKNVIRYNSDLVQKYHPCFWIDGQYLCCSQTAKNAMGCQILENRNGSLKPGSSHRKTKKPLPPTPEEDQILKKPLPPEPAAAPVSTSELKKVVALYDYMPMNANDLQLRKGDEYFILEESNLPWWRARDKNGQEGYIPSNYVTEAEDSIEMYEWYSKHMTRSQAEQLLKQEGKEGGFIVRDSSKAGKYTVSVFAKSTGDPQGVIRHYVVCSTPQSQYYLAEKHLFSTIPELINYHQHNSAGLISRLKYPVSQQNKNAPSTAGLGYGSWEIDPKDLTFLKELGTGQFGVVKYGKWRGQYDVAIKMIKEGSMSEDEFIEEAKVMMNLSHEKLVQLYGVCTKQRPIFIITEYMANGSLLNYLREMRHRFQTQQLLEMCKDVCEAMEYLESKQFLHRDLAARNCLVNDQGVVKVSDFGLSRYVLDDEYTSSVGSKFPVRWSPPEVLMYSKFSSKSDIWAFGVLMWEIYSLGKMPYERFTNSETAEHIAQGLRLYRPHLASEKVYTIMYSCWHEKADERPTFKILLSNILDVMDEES
Procedure, shortened: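 Single compound injection in mice bearing TMD8 BTK C481S tumors, groups of 2, with blood and tumor sampled at day 0, 4, 7 and sometimes 10. Compound levels measured by UPLC/MS-MS and BTK levels by Meso Scale Discovery.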

For `COc1ccc(C(=O)N2CCC3(CCN(CCc4ccc(-c5cc6c(-c7cc(F)cc(NC(=O)c8ccc(C(C)(C)O)cc8F)c7C)ncnc6[nH]5)cc4)CC3)CC2)cc1N1CCC(=O)NC1=O` [Compound V, N-(3-(6-(4-(2-(9-(3-(2,4-Dioxotetrahydropyrimidin-1(2H)-yl)-4-methoxybenzoyl)-3,9-diazaspiro[5.5]undecan-3-yl)ethyl)phenyl)-7H-pyrrolo[2,3-d]pyrimidin-4-yl)-5-fluoro-2-methylphenyl)-2-fluoro-4-(2-hydroxypropan-2-yl)benzamide], the “Payload C0-uM (unconjugated degrader dosed, second payload cell)” value ([1]; API i.v., species taken as rat, listed as note (1 umol/kg)) was 1.1 µM, the AUC ([1]; iv, API i.v., species taken as rat, listed as note (1 umol/kg), read-out: Payload AUC-uM.h (unconjugated degrader dosed, second payload cell)) was 570 nM·h and the AUC ([1]; sc, subcutaneous dosing, unconjugated Compound V at 1 umol/kg, read-out: Payload AUC) was 570 nM·h. For the same compound, the “Dosing frequency to achieve sustained 90% regression” value (TMD8 tumors; i.v.) was 2qw (85%), the “Dosing frequency to achieve sustained 90% regression” value (TMD8 tumors; s.c.) was “Not tolerated” and the “Duration of BTK degradation in mouse ≥90%” value (BTK C481S; i.v.) was under 4 days. For the same compound, the “Duration of BTK degradation in mouse ≥90% (days)” value (BTK C481S; s.c.) was “Not tolerated”.
